# According to article PMC6474336, “Cloning and characterization of a tyrosine decarboxylase involved in the biosynthesis of galanthamine in Lycoris aurea” (PeerJ, 2019):
# Experiments:
# LaTYDC1 [1] = experiment: HPLC of dopamine formed; assay type: biochemical, Lycoris aurea; conditions: pyridoxal-5-phosphate, 50 mM Tris-HCl pH 8.0, 37 °C; GST fusion
# Excerpt: HPLC of dopamine formed on LaTYDC1
# LaTYDC1 [2] = experiment: HPLC of tyramine formed; assay type: biochemical, Lycoris aurea; conditions: pyridoxal-5-phosphate, 50 mM Tris-HCl pH 8.0, 37 °C; GST fusion; Table 1 labels this row 'Tyramine' and prints error ± 0.12
Compound,Km (LaTYDC1 [1]),Km (LaTYDC1 [2])
"N[C@@H](Cc1ccc(O)c(O)c1)C(=O)O [L-Dopa, 3,4-dihydroxy-L-phenylalanine]",966 ± 79 µM,
N[C@@H](Cc1ccc(O)cc1)C(=O)O [L-tyrosine],,602 ± 38 µM
